According to ChEMBL document CHEMBL1201862, “PubChem BioAssay data set” (2004):
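Protocol summary: plate cells (96-well), add compound at 5 concentrations, incubate 48 h, interpolate endpoints linearly. The concentration for 50% growth inhibition is given as GI50.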 The source made the active and inactive calls. No stated cut-off is given here; in the data, active = GI50 up to about 1.1 µM and inactive = higher.

Legend:
Experiment in all cases: NCI anticancer screen, dose series, 48 h
DLD-1 = system: DLD-1
DMS-273 = system: DMS-273
HOP-18 = system: HOP-18
M19-MEL = system: M19-MEL
RXF 631 = system: RXF 631
SNB-78 = system: SNB-78
XF498 = system: XF498
DMS-114 = system: DMS-114
LXFL 529 = system: LXFL 529

Measured: GI50

COc1ccc(C2=C(Cl)c3cc(OC)c(OC)cc3C2Cl)cc1OC (stereo not given)
inactive: DLD-1 15.3 µM | DMS-273 14.3 µM | HOP-18 21.7 µM | M19-MEL 17.3 µM | RXF 631 19.1 µM | SNB-78 20.7 µM | XF498 16 µM

CC(=O)N1c2ccccc2C2=CC3C4C(=O)N(c5ccccc5)C(=O)C4C21C1C(=O)N(c2ccccc2)C(=O)C31 (stereo not given)
inactive: DLD-1 23.4 µM | DMS-114 4.27 µM | HOP-18 34.4 µM | LXFL 529 81.3 µM | SNB-78 84.5 µM | XF498 10.9 µM

COc1cc(CNc2nc3ccc(C(F)(F)F)cc3nc2-c2ccccc2)cc(OC)c1OC
inactive: DLD-1 48.6 µM | DMS-273 39 µM | LXFL 529 24.8 µM | M19-MEL 46.2 µM | RXF 631 > 100 µM | SNB-78 14.5 µM | XF498 56.1 µM

NC(=O)CN(CC(N)=O)C(N)=O
inactive: DMS-114 > 100 µM | DMS-273 > 100 µM | HOP-18 > 100 µM | LXFL 529 > 100 µM | M19-MEL > 100 µM | SNB-78 > 100 µM | XF498 > 100 µM

COc1cc(Br)c(C2OCCCO2)cc1OCc1ccccc1
inactive: DLD-1 39.8 µM | DMS-114 47.1 µM | DMS-273 37.6 µM | LXFL 529 48.2 µM | M19-MEL > 100 µM | RXF 631 > 100 µM | SNB-78 61.4 µM

O=C(c1ccco1)N(C(=S)N1CCN(c2ccccn2)CC1)C1CCCCC1
inactive: DLD-1 > 100 µM | DMS-114 77.3 µM | DMS-273 > 100 µM | HOP-18 > 100 µM | LXFL 529 > 100 µM | M19-MEL > 100 µM | SNB-78 > 100 µM

CN(Cc1ccccc1)c1nc(=[N+](C)C)ss1
inactive: DLD-1 > 100 µM | DMS-114 20.3 µM | DMS-273 60.7 µM | HOP-18 > 100 µM | LXFL 529 71.6 µM | M19-MEL 41.9 µM | RXF 631 67.5 µM | SNB-78 > 100 µM | XF498 > 100 µM

CNC(=O)N(CCCCC(NC(C)=O)C(=O)NCc1ccccc1)Cc1ccccc1 (stereo not given)
inactive: DLD-1 > 100 µM | DMS-114 > 100 µM | DMS-273 > 100 µM | LXFL 529 > 100 µM | M19-MEL > 100 µM | RXF 631 > 100 µM | SNB-78 > 100 µM | XF498 > 100 µM

Nc1c(-c2ccccc2-c2c(N)[n+]([O-])c3ccccc3[n+]2[O-])[n+]([O-])c2ccccc2[n+]1[O-]
inactive: DLD-1 4.63 µM | DMS-114 3.36 µM | DMS-273 4.66 µM | HOP-18 7.71 µM | LXFL 529 6.19 µM | M19-MEL 8.41 µM | SNB-78 71.8 µM

COc1ccc(/C=C/c2nnc(S)[nH]2)cc1
inactive: DLD-1 > 100 µM | DMS-114 > 100 µM | DMS-273 > 100 µM | LXFL 529 > 100 µM | M19-MEL > 100 µM | RXF 631 > 100 µM | SNB-78 > 100 µM | XF498 79.3 µM

CC1CSC(=S)N1C(=O)N1C(=S)SCC1C (stereo not given)
inactive: DLD-1 19.3 µM | DMS-114 38.3 µM | DMS-273 20.1 µM | HOP-18 53.6 µM | LXFL 529 33.4 µM | M19-MEL 25.6 µM | SNB-78 43.2 µM

O=C1c2ccncc2C(=O)c2c(O)ccc(O)c21
inactive: DMS-114 3.01 µM | HOP-18 12.9 µM | LXFL 529 10.3 µM | M19-MEL 1.32 µM | XF498 4.16 µM
